Data as given in patent publication US20060154889A1, “Polyfluorinated nucleoside analogs and methods of use thereof” (priority 2004, published 2006).
Where two headings read alike, the source gives them in different places.

Key:
XACAGCTGT = test: Dangling-end thermal denaturation, sequence XACAGCTGT (Table 1); format: physicochemical; conditions: for Tm: 1 M NaCl, 10 mM sodium phosphate pH 7.0, 5.0 μM DNA-strand; for ΔΔG stacking: difference from core duplex; for ΔTm: vs core duplex
Description: (§1) The dangling-end experimental method was utilized to evaluate the ability of the fluorinated aromatic base analogues to stabilize DNA duplexes when substituted directly adjacent to the helix. The relative stabilizations were measured by comparison of the energetics for helix-coil melting transition of the “core “duplex (lacking any “dangling “nucleotide) to that containing the extra nucleotide. Five short self-complementary sequence contexts were used; the sequences were chosen because they had been shown previously to be well-behaved thermodynamically in the dangling-end configuration. Data from two of the contexts are shown in Table 1, and data for the remaining three show similar trends. By use of these five contexts we were able to compare stacking effects of the base analogues with all four neighboring DNA bases in the helix. Methods for thermodynamic measurements. Thermal denaturation. […] Solutions were then heated to 90° C. for 5 minutes and annealed by slowly cooling to room temperature and then to 0° C. […] Calculations.

(dCGCGCG)2 core duplex = test: Dangling-end thermal denaturation, sequence XCGCGCG (Table 1); format: physicochemical; conditions: for Tm / −ΔG37 / −ΔH / −ΔS / ΔΔG stacking / ΔTm: XCGCGCG; for Tm: 1 M NaCl, 10 mM sodium phosphate pH 7.0, 5.0 μM DNA-strand; for ΔΔG stacking: difference from core duplex; for ΔTm: vs core duplex; for ΔΔG stacking (stability contributed): (dCGCGCG)2 core duplex
Description: as §1

XTGAGCTCA = test: Dangling-end thermal denaturation, sequence XTGAGCTCA (Table 2); format: physicochemical
Description: (§2) The dangling-end experimental method was utilized to evaluate the ability of the fluorinated aromatic base analogues to stabilize DNA duplexes when substituted directly adjacent to the helix. The relative stabilizations were measured by comparison of the energetics for helix—coil melting transition of the “core “duplex (lacking any “dangling “nucleotide) to that containing the extra nucleotide. Five short self-complementary sequence contexts were used; the sequences were chosen because they had been shown previously to be well-behaved thermodynamically in the dangling-end configuration. Data from two of the contexts are shown in Table 1, and data for the remaining three show similar trends. By use of these five contexts we were able to compare stacking effects of the base analogues with all four neighboring DNA bases in the helix.
(§3) Methods for thermodynamic measurements. Thermal denaturation. […] Solutions were then heated to 90° C. for 5 minutes and annealed by slowly cooling to room temperature and then to 0° C.

XGTAGCTAC = test: Dangling-end thermal denaturation, sequence XGTAGCTAC (Table 2); format: physicochemical
Description: as §2, §3

[1] = Octanol-water partitioning of free nucleosides
Description: We explicitly examined hydrophobicity of the four nucleosides by partitioning between 1-octanol and water.
Octanol-water partitioning. The experimental solvent partitioning studies for free nucleosides were carried out as described. Experiments were carried out in triplicate and the results averaged to increase accuracy.

5′XCGCGCG3′ = test: Dangling end stacking in 6-bp self-complementary DNA (Table S3); format: physicochemical; conditions: for ΔG°37 (Van't Hoff) / ΔG°37 (avg.) / ΔG°37 (fits) / ΔH° (van't Hoff) / ΔS° (Van't Hoff) / Tm: 5′XCGCGCG3′ dangling base; for Tm: 1 M NaCl, 10 mM phosphate buffer (pH 7.0), 0.1 mM EDTA, 5.0 μM; for stacks more favorably than parent hydrocarbon: ^FB vs B, ^FI vs I
Description: To seek evidence for the origins of this selectivity, we examined individual properties of the four nonpolar nucleoside analogues. Stacking was evaluated by the standard dangling end approach using a 6-bp self-complementary DNA.
Calculations. […] (Table 4 and Table 5)

XAGCGCT = test: Dangling-end thermal denaturation, sequence XAGCGCT (Table 2); format: physicochemical
Description: as §2, §3

[2] = average from fits to individual melting curves
[3] = 2,4,6- vs 2,4,5-substituted case

| Tm (XACAGCTGT) | −ΔG37 (XACAGCTGT; Van't Hoff plots) | −ΔH (XACAGCTGT; Van't Hoff plots) | −ΔS (XACAGCTGT; Van't Hoff plots) | −ΔG37 (XACAGCTGT; [2]) | ΔΔG stacking (XACAGCTGT) | ΔTm (XACAGCTGT) | Tm ((dCGCGCG)2 core duplex) | −ΔG37 ((dCGCGCG)2 core duplex; Van't Hoff plots) | −ΔH ((dCGCGCG)2 core duplex; Van't Hoff plots) | −ΔS ((dCGCGCG)2 core duplex; Van't Hoff plots) | −ΔG37 ((dCGCGCG)2 core duplex; [2]) | ΔΔG stacking ((dCGCGCG)2 core duplex) | ΔTm ((dCGCGCG)2 core duplex) | −G37 (XTGAGCTCA; marker c) | −H (XTGAGCTCA; marker c) | −S (XTGAGCTCA; marker c) | −G37 (XTGAGCTCA; marker d) | −H (XGTAGCTAC; marker c) | −S (XGTAGCTAC; marker c) | Molecule | also measured |
| --- | --- | --- | --- | --- | --- | --- | --- | --- | --- | --- | --- | --- | --- | --- | --- | --- | --- | --- | --- | --- | --- |
| 48.9 °C | 10.1 ± 0.2 kcal | 67.8 kcal | 186 eu | 9.7 ± 0.1 kcal | 1.9 ± 0.2 | 9.0 °C | 52.2 °C | 10.1 ± 0.3 kcal | 55.0 kcal | 145 eu | 10.0 ± 0.1 kcal | 2.0 ± 0.2 | 10.8 °C | 9.2 kcal | 53.8 kcal | 144 eu | 9.1 kcal | 72.5 kcal | 204 eu | OCC1OC(c2cc(F)c(F)cc2F)CC1O (stereo not drawn) [2,4,5-trifluorophenyl] | G stacking (XTGAGCTCA): 1.5; −G37 (XGTAGCTAC; marker d): 9.1 kcal |
| – | – | – | – | – | – | – | – | – | – | – | – | – | – | – | – | – | – | – | – | 1′,2′-dideoxy-β-1′-(N-indole)-D-ribofuranose [reference compound] | log P ([1]; free nucleoside, 1-octanol and water, triplicate): 0.99 (0.10); ΔG°37 (Van't Hoff) (5′XCGCGCG3′): -10.2 ± 0.3 kcal; ΔG°37 (avg.) (5′XCGCGCG3′): -10.0 ± 0.2 kcal; ΔG°37 (fits) (5′XCGCGCG3′): -9.9 ± 0.1 kcal; ΔH° (van't Hoff) (5′XCGCGCG3′): -60.2 kcal; ΔS° (Van't Hoff) (5′XCGCGCG3′): −161 eu; Tm (5′XCGCGCG3′): 51.6 °C |
| 50.9 °C | 10.7 ± 0.2 kcal | 76.3 kcal | 212 eu | 9.8 ± 0.2 kcal | 2.3 ± 0.2 | 10.0 °C | 53.9 °C | 10.3 ± 0.2 kcal | 53.8 kcal | 93 eu | 10.2 ± 0.2 kcal | 2.2 ± 0.2 | 12.6 °C | 9.1 kcal | 51.9 kcal | 138 eu | 9.2 kcal | 57.0 kcal | 156 eu | OC[C@H]1O[C@@H](c2cc(F)c(F)c(F)c2F)C[C@@H]1O [2,3,4,5-tetrafluorophenyl, 1′,2′-dideoxy-β-1′-(2,3,4,5-tetrafluorophenyl)-D-ribofuranose] | ΔΔG stacking (stability contributed) ((dCGCGCG)2 core duplex): −2.2 kcalmol^−1; G stacking (XTGAGCTCA): 1.5; log P [1]: 1.39 (0.10); ΔG°37 (Van't Hoff) (5′XCGCGCG3′): -10.3 ± 0.2 kcal; ΔG°37 (avg.) (5′XCGCGCG3′): -10.2 ± 0.2 kcal; ΔG°37 (fits) (5′XCGCGCG3′): -10.2 ± 0.2 kcal; ΔH° (van't Hoff) (5′XCGCGCG3′): -53.8 kcal; ΔS° (Van't Hoff) (5′XCGCGCG3′): −93 eu; Tm (5′XCGCGCG3′): 53.9 °C; stacks more favorably than parent hydrocarbon (5′XCGCGCG3′): 1.0 kcal/mol; G stacking (XAGCGCT): 1.4; −G37 (XAGCGCT; marker c): 8.3 kcal; −H (XAGCGCT; marker c): 48.4 kcal; −S (XAGCGCT; marker c): 129 eu; −G37 (XAGCGCT; marker d): 8.3 kcal; G stacking (XGTAGCTAC): 1.7; −G37 (XGTAGCTAC; marker c): 8.8 kcal; −G37 (XGTAGCTAC; marker d): 8.8 kcal |
| 47.8 °C | 9.3 ± 0.2 kcal | 53.6 kcal | 143 eu | 9.4 ± 0.2 kcal | 1.3 ± 0.2 | 7.9 °C | 45.3 °C | 8.4 ± 0.2 kcal | 37.3 kcal | 104 eu | 8.6 ± 0.1 kcal | 0.4 ± 0.1 | 4.0 °C | 8.8 kcal | 46.7 kcal | 122 eu | 9.0 kcal | 52.5 kcal | 142 eu | OC[C@H]1O[C@@H](c2c(F)cc(F)cc2F)C[C@@H]1O [2,4,6-trifluorophenyl, 1′,2′-dideoxy-β-1′-(2,4,6-trifluorophenyl)-D-ribofuranose] | change in Tm stabilization on moving one fluorine from ortho to meta position ((dCGCGCG)2 core duplex; [3]): 6.8; change in stabilization free energy on moving one fluorine from ortho to meta position ((dCGCGCG)2 core duplex; [3]): 1.6 kcal; G stacking (XTGAGCTCA): 1.3; −G37 (XGTAGCTAC; marker c): 8.4 kcal |
| – | – | – | – | – | – | – | – | – | – | – | – | – | – | – | – | – | – | – | – | OC[C@H]1O[C@@H](n2ccc3c(F)c(F)c(F)c(F)c32)C[C@@H]1O [^FI, 1′,2′-dideoxy-β-1′-(N-4,5,6,7-tetrafluoroindole)-D-ribofuranose] | log P [1]: 1.66 (0.10); ΔG°37 (Van't Hoff) (5′XCGCGCG3′): -11.1 ± 0.2 kcal; ΔG°37 (avg.) (5′XCGCGCG3′): -11.2 ± 0.2 kcal; ΔG°37 (fits) (5′XCGCGCG3′): -11.3 ± 0.2 kcal; ΔH° (van't Hoff) (5′XCGCGCG3′): -52.6 kcal; ΔS° (Van't Hoff) (5′XCGCGCG3′): −134 eu; Tm (5′XCGCGCG3′): 59.3 °C; stacks more favorably than parent hydrocarbon (5′XCGCGCG3′): 1.1 kcal/mol |
| 47.3 °C | 9.3 ± 0.0 kcal | 55.2 kcal | 148 eu | 9.3 ± 0.2 kcal | 1.3 ± 0.1 | 7.0 °C | 44.2 °C | 8.5 ± 0.2 kcal | 39.1 kcal | 99 eu | 8.7 ± 0.1 kcal | 0.5 ± 0.2 | 2.9 °C | 8.7 kcal | 48.6 kcal | 128 eu | 8.9 kcal | 56.5 kcal | 155 eu | OC[C@H]1O[C@@H](c2c(F)c(F)c(F)c(F)c2F)C[C@@H]1O [pentafluorophenyl, 1′,2′-dideoxy-β-1′-(pentafluorophenyl)-D-ribofuranose] | ΔΔG stacking (stability contributed) ((dCGCGCG)2 core duplex): −0.5 kcalmol^−1; G stacking (XAGCGCT): 0.9; −G37 (XAGCGCT; marker c): 7.9 kcal; −H (XAGCGCT; marker c): 45.0 kcal; −S (XAGCGCT; marker c): 120 eu |

| Molecule | Tm (XACAGCTGT) | −ΔG37 (XACAGCTGT; Van't Hoff plots) | −ΔH (XACAGCTGT; Van't Hoff plots) | −ΔS (XACAGCTGT; Van't Hoff plots) | −ΔG37 (XACAGCTGT; [2]) | ΔΔG stacking (XACAGCTGT) | ΔTm (XACAGCTGT) | Tm ((dCGCGCG)2 core duplex) | −ΔG37 ((dCGCGCG)2 core duplex; Van't Hoff plots) | −ΔH ((dCGCGCG)2 core duplex; Van't Hoff plots) | −ΔS ((dCGCGCG)2 core duplex; Van't Hoff plots) | −ΔG37 ((dCGCGCG)2 core duplex; [2]) | ΔΔG stacking ((dCGCGCG)2 core duplex) | ΔTm ((dCGCGCG)2 core duplex) | −G37 (XTGAGCTCA; marker c) | −H (XTGAGCTCA; marker c) | −S (XTGAGCTCA; marker c) | −G37 (XTGAGCTCA; marker d) | −H (XGTAGCTAC; marker c) | −S (XGTAGCTAC; marker c) | also measured |
| --- | --- | --- | --- | --- | --- | --- | --- | --- | --- | --- | --- | --- | --- | --- | --- | --- | --- | --- | --- | --- | --- |
| OC[C@H]1OC(c2ccc(F)cc2)C[C@@H]1O (stereo partly drawn) [4-fluorophenyl, 1′-(4-fluorophenyl)-2′-deoxy-D-ribose] | 48.7 °C | 9.9 ± 0.1 kcal | 66.6 kcal | 183 eu | 9.6 ± 0.1 kcal | 1.8 ± 0.1 | 8.7 °C | 51.2 °C | 10.3 ± 0.3 kcal | 64.9 kcal | 175 eu | 9.9 ± 0.2 kcal | 2.0 ± 0.2 | 9.8 °C | – | – | – | – | – | – | – |
